Measured values from patent US8318717B2, “Compounds modifying apoptosis” (2cureX, priority 2005, dated 2012).

Legend:
[1] = system: human colorectal adenocarcinoma cell line HT-29; test: Xenograft study, HT-29 tumours in nude mice; format: in vivo, nude BALB/c mice
Excerpt: Female athymic nude BALB/c mice (BALB/cABom-Foxn1^nu, CA.Cg-Foxn1^nu) are obtained from Taconic Ltd, Ry, Denmark and maintained in the animal facility. Animals are approximately 6 weeks old with an initial body weight of 17-18 g when used for the experiments. The mice are housed in microisolators (filter top cages, Tecniplast, Buguggiata, Italy) under pathogen-free conditions with a 12-h light/12-h dark schedule and fed autoclaved standard chow (Altromin #1324, Lage, Germany) and water ad libitum throughout the experiment. All animals are handled under sterile conditions and maintained in a separate facility. The Danish Experimental Animal Inspectorate has approved the experimental protocol and all animal experiments are performed according to the ethical standards required by the UKCCCCR Guidelines {UKCCCR 1998}. During the study blood samples is taken one time per week. The number of animals per group (control-treatment) should be 8 animals at a minimum. Thirty-fifty percent more animals are inoculated with cells than needed in the study in order to be able to exclude animals in which there is no tumour take—i.e. the tumour fails to establish and grow progressively.
The human colorectal adenocarcinoma cell line HT-29 (HTB-38) has been obtained from the American Type Culture Collection (ATCC) Manassas, Va., USA. Tumour cells growing exponentially are harvested by brief incubation with 0.05% Trypsin-EDTA solution suspended in new medium for injection.
Tumour xenografts are initiated by subcutaneous (s.c.) injection of 10^7 cells into the left flank of nude mice. […]
Tumour volume, food consumption, body weight is measured twice a week. […] Evaluation of tumour growth: The tumours are measured every 3-4 day with a calliper. Baseline tumour weight are calculated by using the following formula mg=(L×W^2)/2 where L=length, W=width and these are perpendicular to each other {Teicher BA 1997}. […]
All data are expressed as the mean±SEM, and statistical analyses of the tumour data are performed using t-test. […]

[2] = Stability in serum from mice; format: in vitro ADME
[3] = system: primary colon cancer cells from patients and colon cancer lines (i.e. HT29); test: Cell penetration, IAP inhibition and apoptosis in colon cancer cells; format: cell-based, human
XIAP = biological target: T1, XIAP (Homo sapiens, UniProt P98170); test: Pull down of XIAP from cell lysates by compound-carrying beads (Western); format: binding
T1 construct: pull down one member of the IAP family, XIAP from cell lysates prepared from various tissues; endogenous in cells; host or cells: Hek293 cells, Hela cells, colon tissue (lysates)
Procedure: Beads displaying compound 2CX2.201 or 2CX4.401 respectively are compared with regard to their ability to bind and pull down one member of the IAP family, XIAP from cell lysates prepared from various tissues.
• Positive control resin beads carrying a tetra-peptide (H-Ala-Val-Pro-Phe-Bead) mimicking the N-terminal part of Smac that binds to BIR3 domain of XIAP was prepared. The method of preparation was analogous to the general procedure described in example 2 with the change that only the four specific peptides were included in each of the four couplings and that the split and mix step was omitted. • Resin beads carrying 2CX2.201 was prepared as described above. • Resin beads carrying 2CX4.401 was prepared as described above. Lysate Preparation: • Hek293 and Hela: Cells are scraped off the plate in Phosphate Buffered Saline (PBS) at 4° C. • Colon tissue: Is blended into a homogeneous suspension in PBS at 4° C. • All cell suspensions are centrifuged for 10 min at 3000 rpm and supernatant is discarded. • Pellet is re-suspended in lysis buffer (50 mM Tris-HCL, 1 mM EGTA, 1 mM EDTA, 1% Triton-X W/W, 1 mM Sodium orthovanadate, 50 mM Sodium fluoride, 5 mM Sodium pyrophosphate, 1 mM MDTT, “Complete” (protease inh.) One tablet for 50 ml) • Incubate for 20 min at 4° C. • Centrifuge at 32.000 G for 30 min, 4° C. • Move supernatant to new vial (discard pellet) • Measure protein concentration Pull Down: • Bead/lysate ratio: 20 ul beads/10 mg lysate (equivalent to one pull down) • Beads are washed in 1 ml lysis buffer×2 • Lysate+beads are mixed and incubated for 1 hrs at 4° C., shaking • Beads are washed ×4 in 1 ml Lysis buffer w. […]

T1 sequence (P98170 whole entry): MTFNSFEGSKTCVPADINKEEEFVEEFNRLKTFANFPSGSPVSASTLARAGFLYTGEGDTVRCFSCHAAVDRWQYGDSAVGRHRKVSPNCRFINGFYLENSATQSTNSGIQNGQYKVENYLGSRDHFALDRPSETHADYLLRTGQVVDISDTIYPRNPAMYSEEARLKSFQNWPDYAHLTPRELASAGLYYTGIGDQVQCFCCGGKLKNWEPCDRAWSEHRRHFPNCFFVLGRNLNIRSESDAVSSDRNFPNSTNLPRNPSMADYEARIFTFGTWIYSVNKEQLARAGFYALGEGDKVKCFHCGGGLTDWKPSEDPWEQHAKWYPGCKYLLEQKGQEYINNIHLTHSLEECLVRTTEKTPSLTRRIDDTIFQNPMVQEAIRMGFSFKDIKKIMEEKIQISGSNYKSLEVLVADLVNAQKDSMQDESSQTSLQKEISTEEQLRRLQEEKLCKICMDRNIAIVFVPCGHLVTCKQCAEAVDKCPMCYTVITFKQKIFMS

## CN[C@@H](C)C(=O)N[C@H](C(=O)N1C[C@@H](NCC2CCCCC2)C[C@H]1C(=O)N[C@@H](Cc1ccccc1)C(N)=O)C(C)C [2CX4.401]
[1]; combination with paclitaxel, 29 days after inoculation, FIG. 4
  effect on Paclitaxel efficacy (tumour weight): significantly potentiated the effect of Paclitaxel
[1]; combined treatment: 2CX4.401 0.0625 mg/h osmotic pump + paclitaxel 25 mg/kg s.c. once a week, 29 days after inoculation
  tumour weight relative to that observed with Paclitaxel alone: approx. 15%
[1]; mono-therapy, osmotic pump 0.0625 mg/h, 29 days
  tumour growth in mono-therapy: does not affect tumour growth
[2]
  stability in serum: high degree of stability
[3]
  apoptosis: promote apoptosis
  inhibition of IAPs: inhibits IAPs
XIAP; conclusion from pull down experiments
  affinity for XIAP, comparison of the two compounds: significant higher affinity than that of 2CX2.201
XIAP; lysates of Hek293, Hela, colon tissue, compound on beads
  pull down of XIAP (FIG. 5a): approximately the same degree as the endogenous AVPF peptide
XIAP; prolonged exposure time to increase sensitivity
  pull down of XIAP (FIG. 5b): weaker effect
